Results: ChEMBL document CHEMBL1152238, “Perylene side chains modulate G-quadruplex conformation in biologically relevant DNA sequences” (Bioorg Med Chem, 2008)
The source made the active and inactive calls. No cut-off for these calls is given here.

Tests used:
Homo sapiens [1] = species on record: Homo sapiens; assay: Binding affinity to 2GGG sequence of human telomeric DNA assessed as G-quadruplex formation at 90 degC upto 15 uM after 10 mins by electrophoretic mobility shift assay
Homo sapiens [2] = species on record: Homo sapiens; assay: Binding affinity to double stranded 4GGG sequence of human telomeric DNA assessed as G-quadruplex formation at 0.1 to 10 uM at 37 degC after 24 hrs by electrophoretic mobility shift assay
Homo sapiens [3] = species on record: Homo sapiens; assay: Binding affinity to 42GGG sequence of human telomeric DNA assessed as G-quadruplex formation at 90 degC after 10 mins by electrophoretic mobility shift assay
Homo sapiens [4] = species on record: Homo sapiens; assay: Binding affinity to 4GGG sequence of human telomeric DNA assessed as intramolecular folding leading to G-quadruplex formation at 25 degC after 30 mins by electrophoretic mobility shift assay
[5] = Binding affinity to pu27 sequence of c-myc DNA assessed as G-quadruplex stabilization at 25 degC after 30 mins at 25 degC by electrophoretic mobility shift assay in presence of Li+ ions
[6] = Binding affinity to pu27 sequence of c-myc DNA assessed as intramolecular folding leading to G-quadruplex formation at 25 degC after 30 mins by electrophoretic mobility shift assay
Homo sapiens [7] = species on record: Homo sapiens; assay: Binding affinity to 4GGG sequence of human telomeric DNA assessed as G-quadruplex formation at 14 uM at 25 degC after 30 mins by circular dichroism spectroscopy in presence of K+ ions
[8] = Binding affinity to pu27 sequence of c-myc DNA assessed as G-quadruplex formation at 90 degC […] after 10 mins by electrophoretic mobility shift assay
[9] = Binding affinity to 1GGG sequence of human telomeric DNA assessed as intramolecular folding leading to G-quadruplex formation at 25 degC after 30 mins by electrophoretic mobility shift assay
Homo sapiens [10] = species on record: Homo sapiens; assay: Binding affinity to 4GGG sequence of human telomeric DNA assessed as G-quadruplex stabilization at 25 degC after 30 mins by electrophoretic mobility shift assay in presence of Li+ ions
Homo sapiens [11] = species on record: Homo sapiens; assay: Binding affinity to 42GGG sequence of human telomeric DNA assessed as G-quadruplex formation at 25 degC upto 20 uM after 30 mins by electrophoretic mobility shift assay
Homo sapiens [12] = species on record: Homo sapiens; assay: Binding affinity to 2GGG sequence of human telomeric DNA assessed as stabilization of dimeric form of G-quadruplex DNA at 95 degC for 5 mins by electrophoretic mobility shift assay
Nucleic Acid [13] = assay: Binding affinity to negatively supercoiled Escherichia coli pBR322 DNA assessed as DNA intercalation at 20 to 50 uM at pH 6 after 30 mins by DNA unwinding assay; assay type: nucleic-acid assay
Homo sapiens [14] = species on record: Homo sapiens; assay: Binding affinity to unfolded 4GGG sequence of human telomeric DNA assessed as G-quadruplex formation at 25 degC by circular dichroism spectroscopy in presence of Li+ ions
Homo sapiens [15] = species on record: Homo sapiens; assay: Binding affinity to 1GGG sequence of human telomeric DNA assessed as G-quadruplex stabilization at 25 degC after 30 mins by electrophoretic mobility shift assay in presence of Li+ ions
Escherichia coli = assay: Binding affinity to negatively supercoiled Escherichia coli pBR322 DNA assessed as self-aggregation at 10 to 20 uM at 37 degC after 30 mins by DNA unwinding assay
[16] = Binding affinity to 2GGG sequence of human telomeric DNA assessed as intramolecular folding leading to G-quadruplex formation at 25 degC after 30 mins by electrophoretic mobility shift assay
Homo sapiens [17] = species on record: Homo sapiens; assay: Binding affinity to 4GGG sequence of human telomeric DNA assessed as G-quadruplex formation at 14 uM at 25 degC after 30 mins during thermal cycling by circular dichroism spectroscopy
Homo sapiens [18] = species on record: Homo sapiens; assay: Binding affinity to 2GGG sequence of human telomeric DNA assessed as G-quadruplex formation at 25 degC upto 15 uM after 24 hr by electrophoretic mobility shift assay
[19] = Binding affinity to double stranded pu27 sequence of c-myc DNA assessed as G-quadruplex formation at 14 uM at 25 degC after 30 mins during thermal cycling by circular dichroism spectroscopy
Homo sapiens [20] = species on record: Homo sapiens; assay: Binding affinity to 4GGGtail sequence of human telomeric DNA assessed as G-quadruplex formation at 0.1 to 10 uM at 37 degC after 24 hrs by electrophoretic mobility shift assay
Homo sapiens [21] = species on record: Homo sapiens; assay: Binding affinity to 2GGG sequence of human telomeric DNA assessed as G-quadruplex formation at 25 degC upto 15 uM after 30 mins by electrophoretic mobility shift assay
Homo sapiens [22] = species on record: Homo sapiens; assay: Binding affinity to 2GGG sequence of human telomeric DNA assessed as G-quadruplex stabilization at 25 degC after 30 mins by electrophoretic mobility shift assay in presence of Li+ ions
Nucleic Acid [23] = assay: Binding affinity to negatively supercoiled Escherichia coli pBR322 DNA assessed as DNA intercalation at 10 to 20 uM at pH 8 after 30 mins by DNA unwinding assay; assay type: nucleic-acid assay
Homo sapiens [24] = species on record: Homo sapiens; assay: Binding affinity to 1GGG sequence of human telomeric DNA assessed as G-quadruplex formation at 14 uM at 25 degC after 30 mins by circular dichroism spectroscopy
Homo sapiens [25] = species on record: Homo sapiens; assay: Binding affinity to 2GGG sequence of human telomeric DNA assessed as G-quadruplex formation at 14 uM at 25 degC after 30 mins by circular dichroism spectroscopy
Homo sapiens [26] = species on record: Homo sapiens; assay: Binding affinity to 4GGG sequence of human telomeric DNA assessed as melting temperature at 14 uM at 25 degC after 30 mins by circular dichroism spectroscopy in presence of K+ ions
[27] = Binding affinity to double stranded pu27 sequence of c-myc DNA assessed as melting temperature at 14 uM at 25 degC after 30 mins by circular dichroism spectroscopy in presence of K+ ions
[28] = Binding affinity to double stranded pu27 sequence of c-myc DNA assessed as intramolecular folding leading to G-quadruplex formation at 0.1 to 10 uM at 37 degC after 24 hrs by electrophoretic mobility shift assay
[29] = Binding affinity to double stranded pu27 sequence of c-myc DNA assessed as intramolecular folding leading to G-quadruplex formation at 0.1 to 10 uM at 95 degC after 24 hrs by electrophoretic mobility shift assay

Row | Compound | Activity (Homo sapiens [1]) | Activity (Homo sapiens [2]) | Activity (Homo sapiens [3]) | Activity (Homo sapiens [4]) | Activity [5] | Activity [6] | Activity (Homo sapiens [7]) | Activity [8] | EC50 [9] | Activity (Homo sapiens [10]) | Activity (Homo sapiens [11]) | Activity (Homo sapiens [12]) | Activity (Nucleic Acid [13]) | Activity (Homo sapiens [14]) | Activity (Homo sapiens [15]) | Activity (Escherichia coli) | EC50 [16] | Activity (Homo sapiens [17]) | Activity (Homo sapiens [22]) | Activity (Nucleic Acid [23]) | also measured
1 | O=C1c2ccc3c4ccc5c6c(ccc(c7ccc(c2c37)C(=O)N1CCN1CCCCC1)c64)C(=O)N(CCN1CCCCC1)C5=O | Active | inactive | inactive | Active | Active | Active | Active | inactive | > 100 µM | Active | inactive | Active | Active | Active | Active | inactive | 90 µM | inactive | Active | – | Activity (Homo sapiens [18]): Active; Activity [19]: Active; Activity (Homo sapiens [20]): Active; Activity (Homo sapiens [21]): Active
2 | O=C1c2ccc3c4ccc5c6c(ccc(c7ccc(c2c37)C(=O)N1CCNCCO)c64)C(=O)N(CCNCCO)C5=O | – | inactive | Active | – | Active | – | Active | inactive | 11 µM | Active | Active | – | Active | – | Active | – | 3.8 µM | inactive | Active | Active | –
3 | C[N+](C)(C)CCN1C(=O)c2ccc3c4ccc5c6c(ccc(c7ccc(c2c37)C1=O)c64)C(=O)N(CC[N+](C)(C)C)C5=O | – | inactive | – | – | Active | – | Active | inactive | 10.8 µM | Active | – | – | Active | – | Active | – | 12 µM | Active | Active | Active | Activity (Homo sapiens [24]): inactive; Activity (Homo sapiens [25]): inactive; Tm (Homo sapiens [26]): 64 °C; Tm [27]: 83 °C
4 | c1cc2c3ccc4c5c(ccc(c6ccc7c(c1CN(CCN1CCCCC1)C7)c26)c53)CN(CCN1CCCCC1)C4 | – | inactive | inactive | Active | Active | Active | Active | inactive | 25 µM | Active | inactive | – | Active | Active | Active | inactive | 20 µM | inactive | Active | – | –
5 | CN(C)CCN1C(=O)c2ccc3c4ccc5c6c(ccc(c7ccc(c2c37)C1=O)c64)C(=O)N(CCN(C)C)C5=O | Active | inactive | Active | – | Active | – | Active | inactive | 8.7 µM | Active | Active | Active | Active | – | Active | – | 4 µM | inactive | Active | Active | Activity [28]: inactive; Activity [29]: inactive; Activity (Homo sapiens [18]): Active; Activity [19]: Active; Activity (Homo sapiens [20]): inactive; Activity (Homo sapiens [21]): Active
